Reference: patent US10307463B2 (priority 2003, dated 2019)

What was measured:
[1] = test system: formalin-induced tonic flinch responses; conditions: rat, in vivo
[2] = test system: heart rate and arterial blood pressure; conditions: rat, in vivo
GI transit = conditions: rat, in vivo
[3] = test system: formalin-induced tonic flinch responses; conditions: rat, in vivo; cited from earlier work
[4] = test system: thermal (heat) response latencies; conditions: rat, in vivo

NCC(CC(=O)O)c1ccc(Cl)cc1 (stereo not drawn) [baclofen, γ-amino-β-(p-chlorophenyl) butyric acid]
formalin-induced tonic (persistent) pain behavior [1]: dose-dependent reductions

Clc1cccc(Cl)c1N=C1NCCN1 [clonidine, 2,6-dichloro-N-2-imidazolidinylidenebenzenamine]
formalin-induced tonic (persistent) pain behavior [1]: dose-dependently suppressed | heart rate [2]: dose-dependent bradycardia

CN1CC[C@]23c4c5ccc(O)c4OC2C(O)C=C[C@H]3[C@H]1C5 (stereo partly drawn) [morphine, 7,8-didehydro-4,5-epoxy-17-methylmorphinan-3,6-diol]
GI transit (GI transit): dose-dependent inhibition | tonic formalin-induced flinching behavior after six days infusion [3]: significantly reduced | development of tolerance to analgesic effects [4]: declined in magnitude | thermal (heat) response latencies [4]: moderately antinociceptive

CCCCN1CCCCC1C(=O)Nc1c(C)cccc1C (stereo not drawn) [bupivacaine]
formalin-induced tonic (persistent) pain behavior [1]: did not significantly inhibit | hindpaw paralysis [1]: immediate but transient hindpaw paralysis
